According to ChEMBL document CHEMBL5726115, “Triazolo compounds” (2017):

Target: cAMP and cAMP-inhibited cGMP 3',5'-cyclic phosphodiesterase 10A (Homo sapiens, UniProt Q9Y233)
Assay: Inhibition Assay: The human PDE10A full length assay was performed in 96-well micro titer plates. The reaction mixture of 50 μl contained 20 mM HEPES pH=7.5/10 mM MgCl2/0.05 mg/ml BSA (Sigma cat. #A-7906), 50 nM cGMP (Sigma, cat. #G6129) and 50 nM [3H]-cGMP (GE Healthcare, cat. #TRK392 S.A. 13.2 Ci/mmol), 3.75 ng/well PDE10A enzyme (Enzo Life Science, Lausen, Switzerland cat #SE-534) with or without a specific test compound. A range of concentrations of the potential inhibitor was used to generate data for calculating the concentration of inhibitor resulting in 50% of the effect (e.g. IC50, the concentration of the competitor inhibiting PDE10A activity by 50%). Non-specific activity was tested without the enzyme. The reaction was initiated by the addition of the substrate solution (cGMP and [3H]-cGMP) and allowed to progress for 20 minutes at room temperature. The reaction was terminated by adding 25 μl of YSi-SPA scintillation beads (GE Healthcare, cat. #RPNQ0150) in 18 mM zinc sulphate solution (stop reagent). After 1 h under shaking, the plate was centrifuged one minute at 170 g to allow beads to settle. Afterwards, radioactive counts were measured on a Perkin Elmer TopCount Scintillation plate reader.

Sequence of cAMP and cAMP-inhibited cGMP 3',5'-cyclic phosphodiesterase 10A (Q9Y233 whole entry): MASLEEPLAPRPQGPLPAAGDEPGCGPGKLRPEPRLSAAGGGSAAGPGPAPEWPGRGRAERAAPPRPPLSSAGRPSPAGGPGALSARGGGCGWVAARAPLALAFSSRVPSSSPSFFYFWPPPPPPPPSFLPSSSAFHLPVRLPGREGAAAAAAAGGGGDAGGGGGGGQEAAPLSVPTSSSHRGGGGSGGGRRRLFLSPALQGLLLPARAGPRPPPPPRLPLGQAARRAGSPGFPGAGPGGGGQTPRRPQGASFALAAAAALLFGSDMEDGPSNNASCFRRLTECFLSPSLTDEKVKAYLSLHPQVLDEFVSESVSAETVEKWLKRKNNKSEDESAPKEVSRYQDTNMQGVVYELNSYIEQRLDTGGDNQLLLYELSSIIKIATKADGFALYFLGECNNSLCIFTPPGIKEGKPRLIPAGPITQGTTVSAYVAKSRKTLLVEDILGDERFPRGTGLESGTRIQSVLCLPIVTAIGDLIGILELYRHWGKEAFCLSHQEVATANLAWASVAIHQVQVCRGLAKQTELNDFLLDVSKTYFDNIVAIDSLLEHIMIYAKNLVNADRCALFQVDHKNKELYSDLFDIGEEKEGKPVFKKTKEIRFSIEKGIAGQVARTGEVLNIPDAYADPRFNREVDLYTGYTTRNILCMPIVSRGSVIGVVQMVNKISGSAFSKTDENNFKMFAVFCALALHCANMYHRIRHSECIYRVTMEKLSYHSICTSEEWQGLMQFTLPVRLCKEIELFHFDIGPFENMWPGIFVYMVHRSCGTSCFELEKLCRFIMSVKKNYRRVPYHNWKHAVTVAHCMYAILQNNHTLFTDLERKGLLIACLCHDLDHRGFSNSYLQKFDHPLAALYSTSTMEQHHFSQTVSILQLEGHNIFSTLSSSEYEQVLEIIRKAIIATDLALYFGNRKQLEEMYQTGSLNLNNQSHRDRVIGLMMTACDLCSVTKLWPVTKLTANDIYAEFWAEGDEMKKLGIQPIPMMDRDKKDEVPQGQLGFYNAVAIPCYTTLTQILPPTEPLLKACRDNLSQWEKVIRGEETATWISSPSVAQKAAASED

SMILES	IC50
Cc1cn2nc(C)c(C)c2nc1C#Cc1nc(N2CCCC2)nn1C	6.6 nM
Cc1nc2cc(C(F)(F)F)c(CCc3nc(N4CCCC4)nn3C)nn2c1C	165 nM
